Several values for one entry are separate records, joined by “and”; a condition that tells them apart may be missing. Identical values can stand only once.
Legend:
Assay in all cases: LanthaScreen Eu Kinase Binding Assay, panel of 486 biochemical kinase assays
various kinases [1] = target: various kinases (Homo sapiens, UniProt Q9Y2U5); conditions: MAP3K2 (MEKK2)
various kinases [2] = target: various kinases (Homo sapiens, UniProt Q9H093); conditions: NUAK2
various kinases [3] = target: various kinases (Homo sapiens, UniProt P07949, M918T); conditions: kinase RET M918T; LanthaScreen Binding
various kinases [4] = target: T1, various kinases (Homo sapiens, UniProt O94768); conditions: kinase STK17B (DRAK2); LanthaScreen Binding
T1 sequence (O94768 1-372): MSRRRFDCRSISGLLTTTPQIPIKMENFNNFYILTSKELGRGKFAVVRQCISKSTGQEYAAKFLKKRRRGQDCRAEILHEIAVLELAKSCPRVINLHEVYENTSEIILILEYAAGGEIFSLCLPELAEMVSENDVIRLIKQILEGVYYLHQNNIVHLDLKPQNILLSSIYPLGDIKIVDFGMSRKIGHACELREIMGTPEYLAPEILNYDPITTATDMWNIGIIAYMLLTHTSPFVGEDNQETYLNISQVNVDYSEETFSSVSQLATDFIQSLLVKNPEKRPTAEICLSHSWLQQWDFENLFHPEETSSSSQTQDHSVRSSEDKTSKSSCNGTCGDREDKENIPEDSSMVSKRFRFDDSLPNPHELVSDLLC

various kinases [5] = target: various kinases (Homo sapiens, UniProt Q15208); conditions: kinase STK38 (NDR); LanthaScreen Binding
various kinases [6] = target: various kinases (Homo sapiens, UniProt Q8TD08); conditions: MAPK15 (ERK7)
various kinases [7] = target: various kinases (Homo sapiens, UniProt Q9H2G2); conditions: kinase SLK; LanthaScreen Binding
various kinases [8] = target: T2, various kinases (Homo sapiens, UniProt Q7L7X3); conditions: kinase TAOK1; LanthaScreen Binding
T2 sequence (Q7L7X3 1-1001): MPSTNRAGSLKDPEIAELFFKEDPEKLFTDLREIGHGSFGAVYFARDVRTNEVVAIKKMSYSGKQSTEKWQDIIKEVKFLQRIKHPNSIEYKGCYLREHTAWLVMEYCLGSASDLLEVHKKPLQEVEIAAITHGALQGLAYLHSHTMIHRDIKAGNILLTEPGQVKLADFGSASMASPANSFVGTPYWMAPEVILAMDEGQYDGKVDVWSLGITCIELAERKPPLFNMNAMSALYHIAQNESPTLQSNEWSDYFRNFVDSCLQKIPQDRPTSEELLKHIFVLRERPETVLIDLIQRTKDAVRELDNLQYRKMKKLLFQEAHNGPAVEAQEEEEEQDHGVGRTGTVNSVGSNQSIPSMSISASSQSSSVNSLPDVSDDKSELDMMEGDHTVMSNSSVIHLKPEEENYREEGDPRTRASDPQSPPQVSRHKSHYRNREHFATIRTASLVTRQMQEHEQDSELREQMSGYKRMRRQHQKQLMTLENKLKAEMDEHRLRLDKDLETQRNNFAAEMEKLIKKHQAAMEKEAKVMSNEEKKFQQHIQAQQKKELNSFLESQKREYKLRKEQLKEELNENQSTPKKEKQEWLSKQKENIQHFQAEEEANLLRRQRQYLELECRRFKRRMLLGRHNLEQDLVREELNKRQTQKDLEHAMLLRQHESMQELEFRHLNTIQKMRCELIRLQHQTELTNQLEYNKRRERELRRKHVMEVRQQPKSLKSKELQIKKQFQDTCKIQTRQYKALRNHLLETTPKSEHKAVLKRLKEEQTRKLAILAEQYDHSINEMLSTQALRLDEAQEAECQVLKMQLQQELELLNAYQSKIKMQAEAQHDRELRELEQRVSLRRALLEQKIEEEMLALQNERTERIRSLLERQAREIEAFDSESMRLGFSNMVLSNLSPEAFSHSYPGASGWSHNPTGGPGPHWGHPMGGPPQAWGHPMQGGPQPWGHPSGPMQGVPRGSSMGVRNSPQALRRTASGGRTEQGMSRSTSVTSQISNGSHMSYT

various kinases [9] = target: various kinases (Homo sapiens, UniProt Q15569); conditions: kinase TESK1; LanthaScreen Binding
various kinases [10] = target: various kinases (Homo sapiens, UniProt Q96RR4); conditions: CAMKK2 (CaMKK beta)
various kinases [11] = target: various kinases (Homo sapiens, UniProt O14936); conditions: CASK
various kinases [12] = target: various kinases (Homo sapiens, UniProt Q5TCX8); conditions: MLK4
various kinases [13] = target: various kinases (Homo sapiens, UniProt P10721, D820E); conditions: KIT D820E
various kinases [14] = target: various kinases (Homo sapiens, UniProt O75716); conditions: kinase STK16 (PKL12); LanthaScreen Binding
various kinases [15] = target: various kinases (Homo sapiens, UniProt Q02750, S218D/S222D); conditions: MAP2K1 (MEK1) S218D S222D
various kinases [16] = target: various kinases (Homo sapiens, UniProt Q9UF33); conditions: EPHA6
various kinases [17] = target: various kinases (Homo sapiens, UniProt P07949, G691S); conditions: kinase RET G691S; LanthaScreen Binding
various kinases [18] = target: various kinases (Homo sapiens, UniProt Q9H4A3); conditions: kinase WNK1; LanthaScreen Binding
various kinases [19] = target: various kinases (Homo sapiens, UniProt P10721, T670E); conditions: KIT T670E

various kinases (Homo sapiens, UniProt Q9H4A3), sequence (Q9H4A3 whole entry): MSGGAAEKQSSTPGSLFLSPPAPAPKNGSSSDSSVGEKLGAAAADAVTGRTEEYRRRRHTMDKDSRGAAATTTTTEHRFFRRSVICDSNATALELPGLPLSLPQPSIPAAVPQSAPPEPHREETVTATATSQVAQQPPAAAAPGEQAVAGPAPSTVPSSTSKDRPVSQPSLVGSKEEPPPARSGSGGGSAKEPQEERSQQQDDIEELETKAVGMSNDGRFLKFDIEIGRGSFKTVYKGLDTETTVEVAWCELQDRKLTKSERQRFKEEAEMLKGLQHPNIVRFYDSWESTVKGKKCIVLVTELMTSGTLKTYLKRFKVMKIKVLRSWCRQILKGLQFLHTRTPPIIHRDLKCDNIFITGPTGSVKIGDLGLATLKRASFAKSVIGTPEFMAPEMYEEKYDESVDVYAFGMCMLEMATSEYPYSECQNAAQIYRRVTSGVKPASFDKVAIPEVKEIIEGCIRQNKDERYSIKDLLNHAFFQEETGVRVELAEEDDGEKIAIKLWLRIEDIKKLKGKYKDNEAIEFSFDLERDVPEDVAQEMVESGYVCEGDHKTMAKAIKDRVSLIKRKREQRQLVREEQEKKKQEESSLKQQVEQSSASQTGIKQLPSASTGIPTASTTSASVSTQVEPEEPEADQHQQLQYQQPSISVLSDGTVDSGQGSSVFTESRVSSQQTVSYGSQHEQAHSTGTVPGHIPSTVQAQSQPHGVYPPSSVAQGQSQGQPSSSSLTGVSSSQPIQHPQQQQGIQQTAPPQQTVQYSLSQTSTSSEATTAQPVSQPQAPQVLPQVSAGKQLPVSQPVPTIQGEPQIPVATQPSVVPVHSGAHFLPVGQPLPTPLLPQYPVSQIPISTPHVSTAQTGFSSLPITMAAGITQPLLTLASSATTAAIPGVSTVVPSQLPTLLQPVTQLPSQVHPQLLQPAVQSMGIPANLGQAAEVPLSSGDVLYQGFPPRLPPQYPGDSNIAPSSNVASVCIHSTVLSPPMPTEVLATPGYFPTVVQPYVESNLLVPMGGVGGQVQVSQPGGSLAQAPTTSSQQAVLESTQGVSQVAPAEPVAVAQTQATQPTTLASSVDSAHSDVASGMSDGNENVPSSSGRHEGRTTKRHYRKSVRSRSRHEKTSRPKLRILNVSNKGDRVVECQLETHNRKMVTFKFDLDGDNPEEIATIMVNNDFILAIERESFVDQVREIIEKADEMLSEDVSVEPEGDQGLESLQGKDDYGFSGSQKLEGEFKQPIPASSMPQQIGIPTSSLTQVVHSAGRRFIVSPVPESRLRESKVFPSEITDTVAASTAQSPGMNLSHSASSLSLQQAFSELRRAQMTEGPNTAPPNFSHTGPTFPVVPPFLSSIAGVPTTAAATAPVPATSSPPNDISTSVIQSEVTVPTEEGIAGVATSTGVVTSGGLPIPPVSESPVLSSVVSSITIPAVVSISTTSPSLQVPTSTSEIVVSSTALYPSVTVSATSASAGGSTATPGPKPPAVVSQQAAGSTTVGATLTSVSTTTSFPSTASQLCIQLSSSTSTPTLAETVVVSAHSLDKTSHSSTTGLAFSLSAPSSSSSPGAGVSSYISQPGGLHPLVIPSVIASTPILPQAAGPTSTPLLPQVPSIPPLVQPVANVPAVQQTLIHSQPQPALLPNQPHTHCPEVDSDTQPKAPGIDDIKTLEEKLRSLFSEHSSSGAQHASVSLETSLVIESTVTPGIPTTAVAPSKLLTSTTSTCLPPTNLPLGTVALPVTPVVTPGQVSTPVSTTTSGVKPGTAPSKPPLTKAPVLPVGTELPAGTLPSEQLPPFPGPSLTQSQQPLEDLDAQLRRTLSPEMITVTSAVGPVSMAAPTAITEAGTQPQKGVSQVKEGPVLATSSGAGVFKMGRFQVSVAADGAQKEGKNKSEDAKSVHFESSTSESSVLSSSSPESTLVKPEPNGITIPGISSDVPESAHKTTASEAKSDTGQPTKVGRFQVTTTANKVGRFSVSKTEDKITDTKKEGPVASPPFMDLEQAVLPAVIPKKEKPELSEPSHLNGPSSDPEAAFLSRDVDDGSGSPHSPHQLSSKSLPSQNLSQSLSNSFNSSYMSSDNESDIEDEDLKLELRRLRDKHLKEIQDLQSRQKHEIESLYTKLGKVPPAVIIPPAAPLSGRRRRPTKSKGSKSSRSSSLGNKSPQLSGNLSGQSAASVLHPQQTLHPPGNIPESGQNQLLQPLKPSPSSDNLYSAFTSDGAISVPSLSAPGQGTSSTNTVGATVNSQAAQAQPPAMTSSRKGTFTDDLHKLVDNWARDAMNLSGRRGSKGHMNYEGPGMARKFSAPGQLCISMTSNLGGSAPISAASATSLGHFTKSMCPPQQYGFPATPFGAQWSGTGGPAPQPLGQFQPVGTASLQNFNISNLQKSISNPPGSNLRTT
various kinases (Homo sapiens, UniProt O75716), sequence (O75716 whole entry): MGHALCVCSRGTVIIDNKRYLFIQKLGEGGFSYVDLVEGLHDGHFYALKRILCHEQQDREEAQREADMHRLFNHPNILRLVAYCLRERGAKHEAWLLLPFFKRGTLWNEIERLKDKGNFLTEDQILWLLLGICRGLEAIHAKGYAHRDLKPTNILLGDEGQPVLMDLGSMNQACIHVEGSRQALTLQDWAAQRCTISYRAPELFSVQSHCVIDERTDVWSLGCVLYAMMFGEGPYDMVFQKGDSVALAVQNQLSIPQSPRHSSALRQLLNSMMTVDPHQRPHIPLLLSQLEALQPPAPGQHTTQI
various kinases (Homo sapiens, UniProt P07949, M918T), sequence (P07949 29-1114 M918T): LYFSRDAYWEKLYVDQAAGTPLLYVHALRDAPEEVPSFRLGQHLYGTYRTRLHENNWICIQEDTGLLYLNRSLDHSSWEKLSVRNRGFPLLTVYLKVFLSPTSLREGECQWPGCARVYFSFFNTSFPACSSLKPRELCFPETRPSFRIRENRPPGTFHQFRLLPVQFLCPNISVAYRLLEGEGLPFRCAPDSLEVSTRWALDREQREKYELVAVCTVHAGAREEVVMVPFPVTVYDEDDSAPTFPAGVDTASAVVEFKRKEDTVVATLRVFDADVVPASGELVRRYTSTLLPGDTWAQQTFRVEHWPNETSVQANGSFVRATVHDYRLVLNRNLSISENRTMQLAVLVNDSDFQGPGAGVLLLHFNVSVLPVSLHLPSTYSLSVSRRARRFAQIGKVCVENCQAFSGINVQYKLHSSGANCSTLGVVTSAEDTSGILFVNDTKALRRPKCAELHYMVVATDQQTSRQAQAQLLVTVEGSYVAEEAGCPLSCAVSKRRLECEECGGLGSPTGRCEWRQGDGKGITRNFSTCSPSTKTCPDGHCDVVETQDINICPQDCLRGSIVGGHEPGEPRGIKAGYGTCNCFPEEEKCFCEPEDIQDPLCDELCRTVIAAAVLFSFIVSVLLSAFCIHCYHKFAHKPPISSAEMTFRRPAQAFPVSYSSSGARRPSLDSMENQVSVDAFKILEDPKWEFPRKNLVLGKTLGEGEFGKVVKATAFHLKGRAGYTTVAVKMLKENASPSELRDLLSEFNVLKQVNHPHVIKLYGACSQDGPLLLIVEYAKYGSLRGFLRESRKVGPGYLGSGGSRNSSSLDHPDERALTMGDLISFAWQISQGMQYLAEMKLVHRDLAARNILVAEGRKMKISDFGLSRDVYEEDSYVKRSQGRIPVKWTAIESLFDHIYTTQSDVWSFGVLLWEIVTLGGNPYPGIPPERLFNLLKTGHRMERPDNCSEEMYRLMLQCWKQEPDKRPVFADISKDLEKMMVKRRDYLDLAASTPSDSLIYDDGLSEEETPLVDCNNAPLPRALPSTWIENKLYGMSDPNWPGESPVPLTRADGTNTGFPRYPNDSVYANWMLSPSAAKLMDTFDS
various kinases (Homo sapiens, UniProt Q15569), sequence (Q15569 whole entry): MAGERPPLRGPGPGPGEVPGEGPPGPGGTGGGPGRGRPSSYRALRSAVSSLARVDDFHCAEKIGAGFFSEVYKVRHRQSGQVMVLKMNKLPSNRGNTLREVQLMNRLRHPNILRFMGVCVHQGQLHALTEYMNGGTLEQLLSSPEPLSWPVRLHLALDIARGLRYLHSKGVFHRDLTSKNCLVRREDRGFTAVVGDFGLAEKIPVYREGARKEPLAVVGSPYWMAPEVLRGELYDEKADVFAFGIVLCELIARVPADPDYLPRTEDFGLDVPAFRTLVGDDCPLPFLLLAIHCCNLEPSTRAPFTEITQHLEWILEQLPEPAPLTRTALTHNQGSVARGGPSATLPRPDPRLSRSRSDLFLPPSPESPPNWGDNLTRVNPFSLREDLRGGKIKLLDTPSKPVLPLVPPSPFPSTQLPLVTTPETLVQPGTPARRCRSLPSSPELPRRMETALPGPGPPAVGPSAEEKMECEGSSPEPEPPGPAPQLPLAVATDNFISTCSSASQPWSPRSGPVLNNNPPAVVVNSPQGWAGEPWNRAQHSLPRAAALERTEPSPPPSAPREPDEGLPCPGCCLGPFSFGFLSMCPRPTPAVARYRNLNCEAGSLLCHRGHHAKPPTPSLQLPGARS
various kinases (Homo sapiens, UniProt Q15208), sequence (Q15208 whole entry): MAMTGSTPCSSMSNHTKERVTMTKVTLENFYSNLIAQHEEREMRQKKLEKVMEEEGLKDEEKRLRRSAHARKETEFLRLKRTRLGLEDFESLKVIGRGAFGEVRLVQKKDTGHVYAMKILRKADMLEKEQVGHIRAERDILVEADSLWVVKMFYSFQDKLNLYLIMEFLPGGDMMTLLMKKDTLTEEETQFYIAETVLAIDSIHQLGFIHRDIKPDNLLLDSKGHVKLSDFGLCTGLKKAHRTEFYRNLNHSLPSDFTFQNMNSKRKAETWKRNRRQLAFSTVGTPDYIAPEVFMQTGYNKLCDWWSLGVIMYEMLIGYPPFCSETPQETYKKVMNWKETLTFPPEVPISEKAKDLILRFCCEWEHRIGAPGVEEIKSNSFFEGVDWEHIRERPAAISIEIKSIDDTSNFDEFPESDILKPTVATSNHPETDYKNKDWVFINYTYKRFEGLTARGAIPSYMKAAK
various kinases (Homo sapiens, UniProt P07949, G691S), sequence (P07949 29-1114 G691S): as the sequence (P07949 29-1114 M918T) above, with G663S, T890M counted along it

COc1ccc2c(c1)[C@]1(C[C@H]1c1ccc3c(/C=C/c4ccc(CN5C[C@@H](C)O[C@@H](C)C5)cc4)n[nH]c3c1)C(=O)N2 [CFI-400945]
% Inhibition (various kinases [1]): -1% and 4% | % Inhibition (various kinases [2]): 44% and 36% | % Inhibition Average (various kinases [3]): 27% | % Inhibition Duplicate #1 (various kinases [3]): 26% | % Inhibition Duplicate #2 (various kinases [3]): 28% | % Inhibition Average (various kinases [4]): 18% | % Inhibition Duplicate #1 (various kinases [4]): 21% | % Inhibition Duplicate #2 (various kinases [4]): 16% | % Inhibition Average (various kinases [5]): 0% | % Inhibition Duplicate #1 (various kinases [5]): -5% | % Inhibition Duplicate #2 (various kinases [5]): 4% | % Inhibition (various kinases [6]): 11% and 8% | % Inhibition Average (various kinases [7]): 5% | % Inhibition Duplicate #1 (various kinases [7]): 4% | % Inhibition Duplicate #2 (various kinases [7]): 6% | % Inhibition Average (various kinases [8]): 14% | % Inhibition Duplicate #1 (various kinases [8]): 15% | % Inhibition Duplicate #2 (various kinases [8]): 13% | % Inhibition Average (various kinases [9]): 12% | % Inhibition Duplicate #1 (various kinases [9]): 13% | % Inhibition Duplicate #2 (various kinases [9]): 11% | % Inhibition (various kinases [10]): 33% and 23% | % Inhibition (various kinases [11]): 57% and 65% | % Inhibition (various kinases [12]): 8% and 4% | % Inhibition (various kinases [13]): 3% and 4% | % Inhibition Average (various kinases [14]): 1% | % Inhibition Duplicate #1 (various kinases [14]): -1% | % Inhibition Duplicate #2 (various kinases [14]): 4% | % Inhibition (various kinases [15]): 4% and 10% | % Inhibition (various kinases [16]): 18% and 24% | % Inhibition Average (various kinases [17]): -1% | % Inhibition Duplicate #1 (various kinases [17]): -11% | % Inhibition Duplicate #2 (various kinases [17]): 9% | % Inhibition Average (various kinases [18]): 11% | % Inhibition Duplicate #1 (various kinases [18]): 14% | % Inhibition Duplicate #2 (various kinases [18]): 8% | % Inhibition (various kinases [19]): 9% and 6%

Source: PMC5762315, “Inhibition of polo-like kinase 4 (PLK4): a new therapeutic option for rhabdoid tumors and pediatric medulloblastoma” (Oncotarget, 2017)
